The values that follow come from patent US20120165304A1, “6,7,8,9-Tetrahydro-5H-1,4,7,10a-tetraaza-cyclohept[f]indene derivatives, pharmaceutical compositions containing these compounds, their use and processes for preparing them” (BOEHRINGER INGELHEIM INTERNATIONAL GMBH, priority 2008, published 2012).

SMILES strings stand for the structures. pEC50: −log10 of the molar value.

human 5-HT2C receptor, sequence (P28335 33-458 I156V/N158S/I160V limits assumed): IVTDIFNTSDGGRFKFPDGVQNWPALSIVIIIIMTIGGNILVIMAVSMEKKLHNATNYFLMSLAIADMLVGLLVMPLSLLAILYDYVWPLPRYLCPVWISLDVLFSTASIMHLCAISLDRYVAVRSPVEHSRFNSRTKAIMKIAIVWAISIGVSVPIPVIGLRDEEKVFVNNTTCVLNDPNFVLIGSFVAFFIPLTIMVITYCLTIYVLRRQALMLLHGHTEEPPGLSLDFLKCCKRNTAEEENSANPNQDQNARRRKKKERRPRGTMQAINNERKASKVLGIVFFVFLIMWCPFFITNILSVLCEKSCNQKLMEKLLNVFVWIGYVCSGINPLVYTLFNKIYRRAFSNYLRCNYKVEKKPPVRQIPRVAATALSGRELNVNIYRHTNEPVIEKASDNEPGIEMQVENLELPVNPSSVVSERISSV

This test concerns the target human 5-HT2C receptor (Homo sapiens, UniProt P28335, I156V/I160V/N158S). Put plainly: cell-based.
The term pEC50 denotes the EC50 on a negative log10 scale, so that one unit is a factor of ten. Read a low pEC50 as a large EC50. `COc1ccccc1C1CCN(c2c3c(nc4ccnn24)CCNCC3)C1` (stereo not shown) [Example 1.21] showed a pEC50 of 5.94.
For the compound `Clc1cccc(OC2CN(c3c4c(nc5ccnn35)CCNCC4)C2)c1` [Example 35.50], the pEC50 was 6.68.
On to `O=C(C1CN(c2c3c(nc4ccnn24)CCNCC3)C1)N1CCc2cccc(Br)c2C1` [Example 31.207], for which the negative-log EC50 (pEC50) was 7.37.
Compound `O=C(C1CN(c2c3c(nc4ccnn24)CCNCC3)C1)N1CCCC(c2ccccc2)C1` (stereo not shown) [Example 31.108] had a negative logarithm of the EC50 (pEC50) of 6.95.
With `CC(C)(C)CCNC(=O)C1CN(c2c3c(nc4ccnn24)CCNCC3)C1` [Example 37.83], the negative logarithm of the EC50 (pEC50) is 7.29.
Consider `CC1CC(C)CN(C(=O)C2CN(c3c4c(nc5ccnn35)CCNCC4)C2)C1` (stereo not shown) [Example 31.22], for which the pEC50 was 7.07.
`CCCCN1CCN(C(=O)C2CN(c3c4c(nc5ccnn35)CCNCC4)C2)CC1` [Example 37.25] had a negative logarithm of the EC50 (pEC50) of 8.52.
Take `CCCCn1c(C2CN(c3c4c(nc5ccnn35)CCNCC4)C2)nc2ccccc21` [Example 34.26]: the pEC50 was 5.94.
The figure for `CN(Cc1cccc(Br)c1)C(=O)C1CN(c2c3c(nc4ccnn24)CCNCC3)C1` [Example 31.79] is 7.70.
`CC1CN(C(=O)C2CN(c3c4c(nc5ccnn35)CCN(C)CC4)C2)CCO1` (stereo not shown) [Example 36.11] showed a negative logarithm of the EC50 (pEC50) of 6.86.
The figure for `Cc1cnn2c(N3CC(C(=O)N4CCC5(CC4)OCc4ccccc45)C3)c3c(nc12)CCNCC3` [Example 31.242] is 7.07; for `Cc1cccc2c1N(C(=O)C1CN(c3c4c(nc5ccnn35)CCNCC4)C1)CC2` [Example 31.174] it is 6.94.
Next, `N#CC1CN(c2c3c(nc4ccnn24)CCNCC3)C1` [Example 22, 1-(6,7,8,9-Tetrahydro-5H-1,4,7,10a-tetraaza-cyclohepta[f]inden-10-yl)-azetidine-3-carbonitrile]: 5.99; `c1cc2nc3c(c(N4CC(OC5CCCC5)C4)n2n1)CCNCC3` [Example 20.5]: 6.45.
`CC1(C)CCN(C(=O)C2CN(c3c4c(nc5c(Br)cnn35)CCNCC4)C2)C1` [Example 31.135]: the negative-log EC50 (pEC50) was 7.34.
`c1csc(COC2CN(c3c4c(nc5ccnn35)CCNCC4)C2)n1` [Example 20.14]: the negative-log EC50 (pEC50) is 7.64.
In turn, `CN(Cc1ccn(C)n1)C(=O)C1CN(c2c3c(nc4ccnn24)CCNCC3)C1` [Example 31.54] gave a negative-log EC50 (pEC50) of 6.97. This pEC50 is 0.67 log units lower than that of the compound before.
Next, `O=C(C1CN(c2c3c(nc4ccnn24)CCNCC3)C1)N1CCC(c2ccncc2)CC1` [Example 31.182]: 8.05; `Cc1nc(CN(C)C(=O)C2CN(c3c4c(nc5ccnn35)CCNCC4)C2)c(C)o1` [Example 31.58]: 7.28; `CN(c1ccccc1)C1CCN(C(=O)C2CN(c3c4c(nc5ccnn35)CCNCC4)C2)CC1` [Example 37.46]: 8.70.
Next, `O=C(C1CN(c2c3c(nc4ccnn24)CCNCC3)C1)N1CCN(c2ccccc2)CC1` [Example 37.34]: 8.22.
The compound `c1cc2nc3c(c(N4CCCCC4)n2n1)CCNCC3` [Example 7.2] gave a negative logarithm of the EC50 (pEC50) of 5.34. This pEC50 lies 2.88 log units lower than the previous one.
`c1ccc2c(c1)ncn2C1CCN(c2c3c(nc4ccnn24)CCNCC3)CC1` [Example 1.42] had a negative logarithm of the EC50 (pEC50) of 5.02. Against the preceding compound, the pEC50 is 0.32 log units lower.
`Cc1csc(C2CN(c3c4c(nc5ccnn35)CCNCC4)C2)n1` [Example 11, 10-[3-(4-Methyl-thiazol-2-yl)-azetidin-1-yl]-6,7,8,9-tetrahydro-5H-1,4,7,10a-tetraaza-cyclohepta[f]indene] showed a pEC50 of 6.79.
`O=C1CCCN1c1ccc(OC2CN(c3c4c(nc5ccnn35)CCNCC4)C2)c(Cl)c1` [Example 35.26] showed a pEC50 of 6.94. The pEC50 values of the last two compounds are within 0.2 log units of each other.
The compound `CCCCN1CCCN(C(=O)C2CN(c3c4c(nc5ccnn35)CCN(C)CC4)C2)CC1` [Example 36.36] showed a negative-log EC50 (pEC50) of 6.59.
In turn, `COc1ccccc1OC1CN(c2c3c(nc4ccnn24)CCNCC3)C1` [Example 35.54] had a pEC50 of 7.07.
Compound `CN1CCc2nc3ccnn3c(N3CC(C(=O)NCCCC(F)(F)F)C3)c2CC1` [Example 36.47] showed a pEC50 of 6.89.
